In US20110206607A1, “IMIDAZOL (1,2-A)PYRIDINES AND RELATED COMPOUNDS WITH ACTIVITY AT CANNABINOID CB2 RECEPTORS” (priority 2007, published 2011):

target: T1, human CB2 (Homo sapiens, UniProt P34972); assay: CB2 receptor binding assay, block of [3H]-CP 55,940 binding; conditions: membranes of HEK-293T cells transfected with human CB2 cDNA; 1.5 nM [3H]-CP 55,940
T1 construct: expressed in transfected cells; host or cells: HEK-293T (transient transfection, membrane preparation)
Protocol: Membrane preparation—HEK-293T cells were cultured according to ATCC (Manassas, Va.) guidelines and transfected with human CB2 cDNA (SEQ ID NO:1) (Genbank X74328), operably linked to the SV40 promoter, using Polyfect (Qiagen, Valencia, Calif.) or Fugene (Roche, Nutley, N.J.) according to manufacturer's instructions. 48 h after transfection cells were harvested in ice cold membrane buffer (20 mM HEPES, 6 mM MgCl2, 1 mM EDTA, pH 7.2) using a cell scraper. Cells were transferred to a nitrogen cavitation chamber and a pressure of […] was applied for 30 min. The pressure was released and the cell debris was collected and centrifuged at 1000 g at 4° C. for 10 min. The supernatant was collected and the spin was repeated until the supernatant was free of precipitate. Membranes were then pelleted by centrifugation at 12.000 g at 4° C. for 20 min. Membranes were resuspended in an appropriate amount of membrane buffer. The membrane concentration was determined using a BioRad (Hercules, Calif.) protein assay dye reagent according to manufacturer's instructions. Membranes were diluted to 1 mg/ml and aliquots snap-frozen in liquid nitrogen and store at −80° C.
Binding assay—0.5-10 ng of membranes were incubated in binding buffer (50 mM Tris, 0.5 mM EDTA, 0.1% BSA, pH 7.4) in the presence of 1.5 nM radioligand ([^3H]-CP 55,940 Perkin Elmer) and varying concentrations of ligands (total volume 100 μL in a 96 well plate). Membranes were filtered onto a 96 well GF/B filterplate (Packard Bioscience, Shelton, Conn.) and washed with […] wash buffer (25 mM HEPES, 1 mM CaCl2, 5 mM MgCl2, 0.25M NaCl) using a Filtermate 196 Harvester (Packard Instruments, Downers Grove, Ill.). The filter plates were dried under a heat lamp before addition of 50 μL of scintillation fluid to each well (Microscint 20, Packard, Shelton, Conn.). Plates were counted on a Topcount NXT (Packard, Shelton, Conn.).
Data Analysis—Graphs were plotted and KD values were determined by nonlinear regression analysis using Prism software (GraphPad version 4.0, San Diego, Calif., USA).

T1 sequence (P34972 whole entry): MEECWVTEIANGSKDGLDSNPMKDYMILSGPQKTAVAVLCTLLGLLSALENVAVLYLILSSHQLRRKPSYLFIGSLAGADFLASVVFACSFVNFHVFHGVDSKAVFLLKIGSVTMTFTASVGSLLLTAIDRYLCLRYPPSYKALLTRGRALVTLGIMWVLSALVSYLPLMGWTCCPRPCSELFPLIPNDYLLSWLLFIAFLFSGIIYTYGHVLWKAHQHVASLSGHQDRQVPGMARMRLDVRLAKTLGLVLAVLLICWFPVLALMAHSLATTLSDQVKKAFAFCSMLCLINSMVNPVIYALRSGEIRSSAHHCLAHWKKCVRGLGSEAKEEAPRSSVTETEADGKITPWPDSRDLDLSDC

pKi | Ki [nM] | SMILES
6.6 |  | Cc1ccc2nc(-c3ncccc3F)c(Nc3ccc4c(c3)OCCO4)n2c1 [CR-87]
6.3 |  | COc1cccc(F)c1-c1nc2ncccn2c1Nc1ccc2c(c1)OCCO2 [CR-112]
8.6 |  | COc1ccc2nc(-c3c(F)ccc(OCF)c3Cl)c(Nc3ccc4c(c3)OCCO4)n2c1 [CR-16]
7.5 |  | Fc1ccc2nc(-c3c(F)cccc3Cl)c(Nc3ccc4c(c3)OCCO4)n2c1 [CR-40]
8.7 |  | COc1ccc2nc(-c3c(F)cccc3Cl)c(Nc3ccc4c(c3)OCCO4)n2c1 [CR-13]
7.6 |  | Oc1cc(F)c(-c2nc3cccc(OCCF)n3c2Nc2ccc3c(c2)OCCO3)c(F)c1 [CR-6]
6.4 |  | OCc1ccn2c(Nc3ccc4c(c3)OCCO4)c(-c3c(F)cccc3Cl)nc2c1 [CR-102]
7.8 |  | Cc1cc(O)cc(C)c1-c1nc2ccc(F)cn2c1Nc1ccc2c(c1)OCCO2 [CR-33]
6.5 |  | COc1cccc(OC)c1-c1nc2ccc(C)cn2c1Nc1ccc2c(c1)OCCO2 [CR-100]
8.5 |  | COc1cccc2nc(-c3c(F)ccc(O)c3F)c(Nc3ccc4c(c3)OCCO4)n12 [CR-4]
7.3 |  | Cc1cccc2nc(-c3c(F)cncc3F)c(Nc3ccc4c(c3)OCCO4)n12 [CR-52]
7.4 |  | Cc1ccc2nc(-c3c(Cl)cccc3[N+](=O)[O-])c(Nc3ccc4c(c3)OCCO4)n2c1 [CR-47]
8.2 |  | COc1cccc2nc(-c3c(C)cncc3C)c(Nc3ccc4c(c3)OCCO4)n12 [CR-139]
7.8 |  | Oc1cc(Cl)c(-c2nc3cccc(OCCF)n3c2Nc2ccc3c(c2)OCCO3)c(Cl)c1 [CR-35]
6.9 |  | Cc1ccn2c(Nc3ccc4c(c3)OCCO4)c(-c3c(Cl)cccc3Cl)nc2c1 [CR-68]
7.8 |  | C=COc1ccc2nc(-c3c(F)cccc3Cl)c(Nc3ccc4c(c3)OCCO4)n2c1 [CR-30]
7.4 |  | COc1ccc2nc(-c3c(F)cccc3Cl)c(Nc3ccc4c(c3)OCCO4)n2c1Cl [CR-44]
6.7 |  | COc1cc(O)ccc1-c1nc2ccc(C)cn2c1Nc1ccc2c(c1)OCCO2 [CR-85]
6.5 |  | COc1cc(-c2nc3ccc(C)cn3c2Nc2ccc3c(c2)OCCO3)cc(F)c1O [CR-96]
8.3 |  | COc1cccc2nc(-c3c(F)cc(O)cc3Cl)c(Nc3ccc4c(c3)OCCO4)n12 [CR-138]
7.3 |  | Cc1ccn2c(Nc3ccc4c(c3)OCCO4)c(-c3c(F)cccc3Cl)nc2c1 [CR-55]

pKi | Ki [nM] | SMILES
8.6 |  | COc1cccc2nc(-c3c(F)cc(O)cc3F)c(Nc3ccc4c(c3)OCCO4)n12 [CR-15]
6.8 |  | Cc1cccc(C)c1-c1nc2ncccn2c1Nc1ccc2c(c1)OCCO2 [CR-74]
6.7 |  | COc1cc(O)ccc1-c1nc2ccccn2c1Nc1ccc2c(c1)OCCO2 [CR-79]
6.6 |  | COc1cc(-c2nc3cccc(C)n3c2Nc2ccc3c(c2)OCCO3)cc(F)c1O [CR-95]
8.4 |  | COc1cccc2nc(-c3c(F)cccc3F)c(Nc3ccc4c(c3)OCCO4)n12 [CR-19]
6.4 |  | COc1cc(O)ccc1-c1nc2cc(C)ccn2c1Nc1ccc2c(c1)OCCO2 [CR-107]
7.5 |  | Cc1ccc2nc(-c3c(F)cccc3Cl)c(Nc3ccc4c(c3)OCCO4)n2c1 [CR-42]
6.4 |  | COc1cc(O)ccc1-c1nc2c(C)cccn2c1Nc1ccc2c(c1)OCCO2 [CR-105]
7.3 |  | Cc1cccn2c(Nc3ccc4c(c3)OCCO4)c(-c3c(F)cccc3Cl)nc12 [CR-50]
7.1 |  | Cc1ccc2nc(-c3cccc(F)n3)c(Nc3ccc4c(c3)OCCO4)n2c1 [CR-59]
6.3 |  | COc1ccnc2nc(-c3c(C)cc(O)cc3C)c(Nc3ccc4c(c3)OCCO4)n12 [CR-108]
6.9 |  | COc1ccc2nc(-c3c(F)cccc3Cl)c(Nc3ccc4c(c3)OCCO4)n2c1OC [CR-67]
7.9 |  | Cc1cc(O)cc(C)c1-c1nc2cccc(OCCF)n2c1Nc1ccc2c(c1)OCCO2 [CR-27]
6.6 |  | COc1cc(-c2nc3cnccn3c2Nc2ccc3c(c2)OCCO3)cc(F)c1O [CR-91]
6.9 |  | COc1cc(O)ccc1-c1nc2cccc(C)n2c1Nc1ccc2c(c1)OCCO2 [CR-65]
8.6 |  | COc1cccc2nc(-c3c(F)ccc(O)c3Cl)c(Nc3ccc4c(c3)OCCO4)n12 [CR-2]
7.3 |  | Cc1ccc2nc(-c3c(C)cccc3C)c(Nc3ccc4c(c3)OCCO4)n2c1 [CR-49]
6.5 |  | Cc1ccn2c(Nc3ccc4c(c3)OCCO4)c(-c3cccc(F)n3)nc2c1 [CR-99]
6.7 |  | Cc1cn2c(Nc3ccc4c(c3)OCCO4)c(-c3c(F)cccc3Cl)nc2cn1 [CR-80]
6.7 |  | Cc1cccc(C)c1-c1nc2cnccn2c1Nc1ccc2c(c1)OCCO2 [CR-82]

Second part, the compound before the results:

SMILES | pKi | Ki [nM]
COc1ccnc2nc(-c3c(F)cc(OCCF)cc3F)c(Nc3ccc4c(c3)OCCO4)n12 [CR-61] | 7.0 | 
COc1cc(-c2nc3cccc(C)n3c2Nc2ccc3c(c2)OCCO3)ccc1OCCF [CR-88] | 6.6 | 
Cc1cccc2nc(-c3c(Cl)cccc3Cl)c(Nc3ccc4c(c3)OCCO4)n12 [CR-32] | 7.8 | 
Cc1cccc2nc(-c3c(F)cc(OCCF)cc3F)c(Nc3ccc4c(c3)OCCO4)n12 [CR-26] | 7.9 | 
COc1ccnc2nc(-c3c(F)cccc3Cl)c(Nc3ccc4c(c3)OCCO4)n12 [CR-104] | 6.4 | 
Fc1cccc(Cl)c1-c1nc2ncccn2c1Nc1ccc2c(c1)OCCO2 [CR-46] | 7.4 | 
CCc1cccc2nc(-c3c(F)cccc3Cl)c(Nc3ccc4c(c3)OCCO4)n12 [CR-45] | 7.4 | 
COc1cccc(OC)c1-c1nc2c(C)cccn2c1Nc1ccc2c(c1)OCCO2 [CR-123] | 6.0 | 
COc1cccc2nc(-c3c(F)cccc3Cl)c(NC(=O)Nc3ccc4c(c3)OCCO4)n12 [CR-109] | 6.3 | 
COc1cccc(OC)c1-c1nc2ccccn2c1Nc1ccc2c(c1)OCCO2 [CR-116] | 6.2 | 
COc1cccc2nc(-c3c(F)cc(OCCF)cc3F)c(Nc3ccc4c(c3)OCCO4)n12 [CR-17] | 8.5 | 
COc1cccc2nc(-c3c(F)cncc3F)c(Nc3ccc4c(c3)OCCO4)n12 [CR-34] | 7.8 | 
COc1cc(-c2nc3cnccn3c2Nc2ccc3c(c2)OCCO3)ccc1O [CR-75] | 6.8 | 
COc1cccc(OC)c1-c1nc2cccc(C)n2c1Nc1ccc2c(c1)OCCO2 [CR-114] | 6.3 | 
Fc1ncccc1-c1nc2cnccn2c1Nc1ccc2c(c1)OCCO2 [CR-78] | 5.4 | 
COc1cc(-c2nc3ncccn3c2Nc2ccc3c(c2)OCCO3)ccc1O [CR-70] | 6.8 | 

SMILES | pKi | Ki [nM]
Fc1cncc(F)c1-c1nc2cccc(OCC[18F])n2c1Nc1ccc2c(c1)OCCO2 [CR-135] |  | 39.8
COc1cccc2nc(-c3c(F)ccc(OC[18F])c3Cl)c(Nc3ccc4c(c3)OCCO4)n12 [CR-134] |  | 1
Fc1cccc(Cl)c1-c1nc2cccc(C(F)(F)F)n2c1Nc1ccc2c(c1)OCCO2 [CR-122] | 6.0 | 
CCC(C)Oc1cccc2nc(-c3c(F)cccc3Cl)c(Nc3ccc4c(c3)OCCO4)n12 (stereo not drawn) [CR-62] | 7.0 | 
COc1cccc2nc(-c3c(Cl)cccc3Cl)c(Nc3ccc4c(c3)OCCO4)n12 [CR-18] | 8.4 | 
COc1cccc2nc(-c3c(F)ccc(OCCF)c3Cl)c(Nc3ccc4c(c3)OCCO4)n12 [CR-9] | 9.3 | 
COc1cc(-c2nc3cccc(C)n3c2Nc2ccc3c(c2)OCCO3)ccc1O [CR-97] | 6.5 | 
COc1cccc2nc(-c3c(F)cccc3Cl)c(Nc3ccc4c(c3)OCCO4)n12 [CR-14] | 8.7 | 
Cc1cccc2nc(-c3c(F)cccc3Cl)c(Nc3ccc4c(c3)OCO4)n12 [CR-127] | 7.3 | 
COc1cccc2nc(-c3c(Cl)ccc(OCF)c3F)c(Nc3ccc4c(c3)OCCO4)n12 [CR-10] | 9.2 | 
Cc1cccc2nc(-c3cccc(F)n3)c(Nc3ccc4c(c3)OCCO4)n12 [CR-84] | 6.7 | 
Clc1cncc(Cl)c1-c1nc2ccccn2c1Nc1ccc2c(c1)OCCO2 [CR-64] | 7.0 | 
COc1cccc(OC)c1-c1nc2ccncn2c1Nc1ccc2c(c1)OCCO2 [CR-90] | 5.6 | 
COc1cccc2nc(-c3c(F)ccc(OCCF)c3F)c(Nc3ccc4c(c3)OCCO4)n12 [CR-12] | 8.8 | 
Fc1ccc(-c2nc3ccccn3c2Nc2ccc3c(c2)OCCO3)cn1 [CR-110] | 5.7 | 
